Experimental data reported in ChEMBL document CHEMBL5550199, “Rational In Silico Design of Selective TMPRSS6 Peptidomimetic Inhibitors via Exploitation of the S2 Subpocket” (J Med Chem, 2024).
Converted amounts (≈) assume the structure as drawn. Blank lines part the entries; values can stand above or below the compound they belong to. The source made the active and inactive calls. The calls are words filed in the database; no cut-off is given here.

What was measured:
[1] = species: Homo sapiens; test: (§1) Selectivity index, ratio of Ki for mixed inhibition of recombinant human Matriptase using Boc-QAR-AMC as substrate assessed as inhibition constant by fluorescence based analysis to Ki for competitive tight binding inhibition of recombinant human TMPRSS6 using Boc-QAR-AMC as substrate assessed as inhibition constant by fluorescence based analysis
[2] = biological target: T1, Transmembrane protease serine 6 (Homo sapiens, UniProt Q8IU80); test: Inhibition of human TMPRSS6 transfected in HEK293SL cells using Boc-QAR-AMC as substrate measured for 24 hrs; assay type: cell-based
T1 sequence (Q8IU80 whole entry): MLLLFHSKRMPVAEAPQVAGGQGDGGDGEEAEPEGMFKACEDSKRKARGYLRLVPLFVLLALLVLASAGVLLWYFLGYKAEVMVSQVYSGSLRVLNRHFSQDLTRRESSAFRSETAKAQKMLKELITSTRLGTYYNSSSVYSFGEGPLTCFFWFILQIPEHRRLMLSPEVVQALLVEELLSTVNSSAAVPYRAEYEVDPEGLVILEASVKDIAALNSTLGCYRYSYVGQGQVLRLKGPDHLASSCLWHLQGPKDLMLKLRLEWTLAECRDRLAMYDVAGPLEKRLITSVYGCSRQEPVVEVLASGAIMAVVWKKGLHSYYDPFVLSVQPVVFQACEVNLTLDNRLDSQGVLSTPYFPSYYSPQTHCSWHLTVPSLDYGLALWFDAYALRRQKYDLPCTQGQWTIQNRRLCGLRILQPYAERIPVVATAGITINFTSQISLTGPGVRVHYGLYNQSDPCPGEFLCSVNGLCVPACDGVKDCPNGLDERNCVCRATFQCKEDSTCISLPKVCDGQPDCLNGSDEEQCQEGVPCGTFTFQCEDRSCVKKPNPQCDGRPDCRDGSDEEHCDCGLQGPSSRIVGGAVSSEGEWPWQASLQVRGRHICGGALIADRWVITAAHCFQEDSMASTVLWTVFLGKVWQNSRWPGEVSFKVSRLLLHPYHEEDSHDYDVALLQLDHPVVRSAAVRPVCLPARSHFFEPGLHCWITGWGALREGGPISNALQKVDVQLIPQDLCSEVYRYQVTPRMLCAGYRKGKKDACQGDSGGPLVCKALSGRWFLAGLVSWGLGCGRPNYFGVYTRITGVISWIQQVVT

[3] = biological target: Coagulation factor X (Homo sapiens, UniProt P00742); test: Inhibition of recombinant human FXA using Boc-QAR-AMC as substrate assessed as inhibition constant by fluorescence based analysis
[4] = biological target: Prothrombin (Homo sapiens, UniProt P00734); test: Inhibition of recombinant human thrombin using Boc-QAR-AMC as substrate assessed as inhibition constant by fluorescence based analysis
[5] = Metabolic stability in Sprague-Dawley rat microsome assessed as intrinsic clearance measured for 120 mins in presence of NADPH by UPLC-MS analysis; assay type: ADME; details: microsomes, 2 h
[6] = Apparent Permeability of compound in PBS buffer at pH 7.4 incubated for 17 hrs by PAMPA assay; assay type: ADME; details: pH 7.4, 17 h
[7] = biological target: T1, Transmembrane protease serine 6; test: Competitive tight binding inhibition of recombinant human TMPRSS6 using Boc-QAR-AMC as substrate assessed as inhibition constant by fluorescence based analysis
[8] = biological target: T2, Suppressor of tumorigenicity 14 protein (Homo sapiens, UniProt Q9Y5Y6); test: Inhibition of human Matriptase transfected in HEK293SL cells using Boc-QAR-AMC as substrate measured for 24 hrs; assay type: cell-based
T2 sequence (Q9Y5Y6 whole entry): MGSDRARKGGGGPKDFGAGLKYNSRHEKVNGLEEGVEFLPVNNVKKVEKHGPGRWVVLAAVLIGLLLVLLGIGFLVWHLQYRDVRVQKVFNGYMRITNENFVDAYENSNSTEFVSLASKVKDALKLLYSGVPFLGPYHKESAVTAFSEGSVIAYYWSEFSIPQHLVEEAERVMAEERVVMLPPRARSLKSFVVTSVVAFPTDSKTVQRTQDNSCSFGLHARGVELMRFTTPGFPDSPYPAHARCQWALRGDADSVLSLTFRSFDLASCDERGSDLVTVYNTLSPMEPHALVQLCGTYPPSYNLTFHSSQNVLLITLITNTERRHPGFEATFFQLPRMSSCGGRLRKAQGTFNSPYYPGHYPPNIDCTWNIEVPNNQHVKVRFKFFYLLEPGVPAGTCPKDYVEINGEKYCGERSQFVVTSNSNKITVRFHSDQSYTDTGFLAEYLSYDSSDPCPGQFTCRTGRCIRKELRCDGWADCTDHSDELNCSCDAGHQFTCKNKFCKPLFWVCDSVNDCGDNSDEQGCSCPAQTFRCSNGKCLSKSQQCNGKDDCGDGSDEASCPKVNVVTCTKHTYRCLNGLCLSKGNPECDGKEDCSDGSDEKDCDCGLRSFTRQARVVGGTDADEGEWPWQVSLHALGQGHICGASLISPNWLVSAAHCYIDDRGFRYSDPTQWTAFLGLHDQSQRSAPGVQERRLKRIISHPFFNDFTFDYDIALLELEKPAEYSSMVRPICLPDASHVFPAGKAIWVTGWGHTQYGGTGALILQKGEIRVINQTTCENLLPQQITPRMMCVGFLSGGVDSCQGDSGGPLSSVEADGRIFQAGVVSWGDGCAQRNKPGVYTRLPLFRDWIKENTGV

[9] = biological target: Furin (Homo sapiens, UniProt P09958); test: Inhibition of recombinant human furin using Boc-RVRR-AMC as substrate assessed as inhibition constant by fluorescence based analysis
[10] = biological target: T2, Suppressor of tumorigenicity 14 protein; test: Mixed inhibition of recombinant human Matriptase using Boc-QAR-AMC as substrate assessed as inhibition constant by fluorescence based analysis
[11] = Metabolic stability in Sprague-Dawley rat microsome assessed as half life measured for 120 mins in presence of NADPH by UPLC-MS analysis; assay type: ADME; details: microsomes, 2 h
[12] = species: Homo sapiens; test: Selectivity index, ratio of IC50 for inhibition of human Matriptase transfected in HEK293SL cells using Boc-QAR-AMC as substrate to IC50 for inhibition of human TMPRSS6 transfected in HEK293SL cells using Boc-QAR-AMC as substrate; assay type: cell-based
[13] = test system: Caco-2; test: Disruption of epithelial integrity in human Caco-2 cells assessed as change in TEER modulation after 8 days; assay type: functional, cell-based; details: Caco-2, 192 h
[14] = Stability in Sprague-Dawley rat plasma assessed as parent compound remaining at 24 hrs by UPLC-MS analysis; assay type: ADME, cell-free
[15] = biological target: T1, Transmembrane protease serine 6; test: Binding affinity to recombinant human TMPRSS6 using Boc-QAR-AMC as substrate assessed as inhibition constant by fluorescence based analysis
[16] = species: Homo sapiens; test: as §1, with “binding affinity to” for “mixed inhibition of”, “for” for “for competitive tight”, “affinity to” for “inhibition of”
[17] = biological target: T2, Suppressor of tumorigenicity 14 protein; test: Binding affinity to recombinant human Matriptase using Boc-QAR-AMC as substrate assessed as inhibition constant by fluorescence based analysis
[18] = Cytotoxicity against HEK cells assessed as reduction in cell viability measured for 24 hrs by celltiter-glo 2.0 assay; assay type: toxicity, cell-based; details: human
[19] = biological target: T3, Transmembrane protease serine 6 (Homo sapiens) (UniProt Q8IU80); test: Inhibition of recombinant human TMPRSS6 at 100 nM by Michaelis-Menten analysis relative to control
T3 sequence (whole entry): T1 sequence (Q8IU80 whole entry)

[20] = biological target: T4, Suppressor of tumorigenicity 14 protein (Homo sapiens) (UniProt Q9Y5Y6); test: Inhibition of recombinant human Matriptase at 100 nM by Michaelis-Menten analysis relative to control
T4 sequence (whole entry): T2 sequence (Q9Y5Y6 whole entry)

[21] = Solubility of compound in PBS at pH 7.4 measured for 90 mins by UPLC analysis; assay type: physicochemical; details: buffer, pH 7.4, 1.5 h

Coagulation factor X, sequence (P00742 41-179 limits assumed): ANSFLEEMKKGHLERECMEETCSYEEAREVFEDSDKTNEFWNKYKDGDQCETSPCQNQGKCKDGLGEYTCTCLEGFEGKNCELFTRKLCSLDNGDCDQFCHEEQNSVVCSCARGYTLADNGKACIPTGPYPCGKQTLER
Coagulation factor X, sequence (P00742 235-488 limits assumed): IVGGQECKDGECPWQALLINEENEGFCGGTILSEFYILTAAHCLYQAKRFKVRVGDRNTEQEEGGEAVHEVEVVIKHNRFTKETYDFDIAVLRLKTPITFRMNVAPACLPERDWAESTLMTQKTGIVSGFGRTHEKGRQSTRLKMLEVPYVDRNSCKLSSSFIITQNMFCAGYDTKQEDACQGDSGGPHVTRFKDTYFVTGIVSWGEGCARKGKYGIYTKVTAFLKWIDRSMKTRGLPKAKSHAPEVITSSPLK
Furin, sequence (P09958 whole entry): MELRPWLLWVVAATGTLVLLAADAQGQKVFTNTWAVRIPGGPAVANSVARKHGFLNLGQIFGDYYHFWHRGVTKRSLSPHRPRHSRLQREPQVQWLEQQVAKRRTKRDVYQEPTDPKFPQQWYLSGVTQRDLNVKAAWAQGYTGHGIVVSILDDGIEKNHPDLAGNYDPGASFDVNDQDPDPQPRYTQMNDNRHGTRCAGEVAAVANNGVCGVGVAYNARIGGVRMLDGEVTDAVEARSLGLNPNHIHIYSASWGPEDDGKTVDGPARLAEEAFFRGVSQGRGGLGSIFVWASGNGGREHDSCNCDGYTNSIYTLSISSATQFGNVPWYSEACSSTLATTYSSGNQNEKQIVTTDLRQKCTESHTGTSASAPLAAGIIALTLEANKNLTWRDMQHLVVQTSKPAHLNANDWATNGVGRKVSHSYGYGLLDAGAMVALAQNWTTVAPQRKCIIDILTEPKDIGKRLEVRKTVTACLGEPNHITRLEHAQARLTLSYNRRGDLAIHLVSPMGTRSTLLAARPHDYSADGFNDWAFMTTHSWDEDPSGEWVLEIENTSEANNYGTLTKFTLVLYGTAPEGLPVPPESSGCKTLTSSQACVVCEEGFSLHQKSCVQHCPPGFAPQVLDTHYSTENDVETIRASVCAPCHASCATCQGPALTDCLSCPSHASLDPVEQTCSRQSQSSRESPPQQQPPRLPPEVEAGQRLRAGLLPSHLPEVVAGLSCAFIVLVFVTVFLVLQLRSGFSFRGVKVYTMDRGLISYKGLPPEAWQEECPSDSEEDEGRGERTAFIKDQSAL

SMILES: N=C(N)NCCC[C@H](NC(=O)[C@@H](NC(=O)[C@H](CCc1ccccc1)NC(=O)CCc1ccccc1)C1CCCCC1)C(=O)c1nc2ccccc2s1
Ratio Ki [1]: 119
IC50 [2]: 332 nM
Ki [3]: > 10000 nM
Ki [4]: 395 nM
CLH [5]: 1.4 µL/min/mg
Papp [6]: 0.01 10^-6 cm/s
Ki [7]: 5.2 nM
IC50 [8]: 6070 nM
Ki [9]: > 10000 nM
Ki [10]: 618 nM
t1/2 [11]: > 2 h
Ratio IC50 [12]: 18
IC50 [13]: 6100 nM
Stability [14]: 100%

SMILES: N=C(N)NCCC[C@H](NC(=O)[C@H](Cc1cccc2ccccc12)NC(=O)[C@H](Cc1cscn1)NC(=O)CCc1ccccc1)C(=O)c1nc2ccccc2s1
Ki [15]: 3.7 nM
Ratio Ki [16]: 12
Ki [17]: 45.3 nM
Activity [18]: Non-Toxic

SMILES: N=C(N)NCCC[C@H](NC(=O)[C@H](Cc1ccc(C(=O)c2ccccc2)cc1)NC(=O)[C@H](Cc1cscn1)NC(=O)CCc1ccccc1)C(=O)c1nc2ccccc2s1
inhibition [19]: inactive
inhibition [20]: inactive

SMILES: N=C(N)NCCC[C@H](NC(=O)[C@H](CCc1ccccc1)NC(=O)[C@H](Cc1cscn1)NC(=O)CCc1ccccc1)C(=O)c1nc2ccccc2s1
Ki [15]: 2.2 nM
Ratio Ki [16]: 1.5
Ki [17]: 3.3 nM

SMILES: N=C(N)NCCC[C@H](NC(=O)[C@H](CC12CC3CC(CC(C3)C1)C2)NC(=O)[C@H](Cc1cscn1)NC(=O)CCc1ccccc1)C(=O)c1nc2ccccc2s1
inhibition [19]: inactive
inhibition [20]: inactive

SMILES: N=C(N)NCCC[C@H](NC(=O)[C@H](CCC1CCCCC1)NC(=O)[C@H](Cc1cscn1)NC(=O)CCc1ccccc1)C(=O)c1nc2ccccc2s1
Ki [15]: 8.3 nM
Ratio Ki [16]: 1.5
Ki [17]: 12.3 nM

SMILES: N=C(N)NCCC[C@H](NC(=O)[C@H](Cc1ccc(OCc2ccccc2)cc1)NC(=O)[C@H](Cc1cscn1)NC(=O)CCc1ccccc1)C(=O)c1nc2ccccc2s1
Ki [15]: 5.6 nM
Ratio Ki [16]: 4.8
Ki [17]: 26.8 nM

SMILES: N=C(N)NCCC[C@H](NC(=O)[C@H](Cc1ccc2ccccc2c1)NC(=O)[C@H](Cc1cscn1)NC(=O)CCc1ccccc1)C(=O)c1nc2ccccc2s1
Ki [15]: 7.9 nM
Ratio Ki [16]: 6.7
Ki [17]: 53 nM

More lines, main results first:

Ki [15]: 1.5 nM
Ratio Ki [16]: 3.3
Ki [17]: 5 nM
SMILES: CC(C)C[C@H](NC(=O)[C@H](Cc1cscn1)NC(=O)CCc1ccccc1)C(=O)N[C@@H](CCCNC(=N)N)C(=O)c1nc2ccccc2s1

Ki [15]: 12.5 nM
Ratio Ki [16]: 2.6
Ki [17]: 33.6 nM
SMILES: N=C(N)NCCC[C@H](NC(=O)[C@@H](NC(=O)[C@H](Cc1cscn1)NC(=O)CCc1ccccc1)c1ccccc1)C(=O)c1nc2ccccc2s1

Ki [15]: 1.4 nM
Ratio Ki [16]: 2.9
Ki [17]: 4.1 nM
SMILES: N=C(N)NCCC[C@H](NC(=O)[C@H](Cc1ccccc1)NC(=O)[C@H](Cc1cscn1)NC(=O)CCc1ccccc1)C(=O)c1nc2ccccc2s1

Ki [15]: 3.9 nM
Ratio Ki [16]: 2.3
Ki [17]: 9.1 nM
SMILES: N=C(N)NCCC[C@H](NC(=O)[C@H](CC1CCCCC1)NC(=O)[C@H](Cc1cscn1)NC(=O)CCc1ccccc1)C(=O)c1nc2ccccc2s1

inhibition [19]: 20%
inhibition [20]: 20%
SMILES: CCC[C@H](NC(=O)[C@H](Cc1cscn1)NC(=O)CCc1ccccc1)C(=O)N[C@@H](CCCNC(=N)N)C(=O)c1nc2ccccc2s1

Ki [15]: 3.4 nM
Ratio Ki [1]: 19
IC50 [2]: 22 nM
Ratio Ki [16]: 29
Ki [3]: > 10000 nM
Ki [4]: 120 nM
CLH [5]: 1.12 µL/min/mg
Ki [17]: 99.2 nM
Papp [6]: 0.017 10^-6 cm/s
Ki [7]: 5.3 nM
solubility [21]: 158 µM (≈ 113 µg/mL)
IC50 [8]: 352 nM
Ki [9]: > 10000 nM
Ki [10]: 100 nM
t1/2 [11]: > 2 h
Stability [14]: 65%
SMILES: N=C(N)NCCC[C@H](NC(=O)[C@@H](NC(=O)[C@H](Cc1cscn1)NC(=O)CCc1ccccc1)C1CCCCC1)C(=O)c1nc2ccccc2s1
Activity [18]: Non-Toxic
Ratio IC50 [12]: 16

inhibition [19]: 20%
inhibition [20]: 20%
SMILES: CCCC[C@H](NC(=O)[C@H](Cc1cscn1)NC(=O)CCc1ccccc1)C(=O)N[C@@H](CCCNC(=N)N)C(=O)c1nc2ccccc2s1

Ki [15]: 1.2 nM
Ratio Ki [16]: 9.4
Ki [17]: 11.3 nM
SMILES: CC[C@H](C)[C@H](NC(=O)[C@H](Cc1cscn1)NC(=O)CCc1ccccc1)C(=O)N[C@@H](CCCNC(=N)N)C(=O)c1nc2ccccc2s1

inhibition [19]: 20%
inhibition [20]: 20%
SMILES: CC[C@H](NC(=O)[C@H](Cc1cscn1)NC(=O)CCc1ccccc1)C(=O)N[C@@H](CCCNC(=N)N)C(=O)c1nc2ccccc2s1

Ki [15]: 4.6 nM
Ratio Ki [16]: 11
Ki [17]: 50.8 nM
SMILES: CC(C)(C)C[C@H](NC(=O)[C@H](Cc1cscn1)NC(=O)CCc1ccccc1)C(=O)N[C@@H](CCCNC(=N)N)C(=O)c1nc2ccccc2s1

Ki [15]: 1.4 nM
Ratio Ki [16]: 6.3
Ki [17]: 8.8 nM
SMILES: CC[C@@H](C)[C@H](NC(=O)[C@H](Cc1cscn1)NC(=O)CCc1ccccc1)C(=O)N[C@@H](CCCNC(=N)N)C(=O)c1nc2ccccc2s1
